According to patent US8865724B2, “Preparation of 2-methyl-4-amino-5(substituted-1H-1,2,3-triazolyl)methylpyrimidine derivatives and microbicidal activity thereof” (Central China Normal University, priority 2011, dated 2014):
Where two headings read alike, the source gives them in different places.

Legend:
gray mold of cucumber = experiment: Spawn growth rate on agar plates (Embodiment 9); type: cell-based, Botrytis cinerea; settings: 48 h; for inhibition of growth at 12.5 µg/g: Concentration 12.5 μg/g; for inhibition of growth at 25 µg/g: Concentration 25 μg/g; for inhibition of growth at 50 µg/g: Concentration 50 μg/g
Downy Mildew of Cucumber = experiment: Microbicidal activity on cucumber seedlings, spray then spore inoculation (Embodiment 8); settings: for pest or weed control at 500 µg/g: Cucumis sativus, read-out: Downy Mildew of Cucumber Average inhibition rate (%)
Method: (§1) (Pseudomonassyringaepv. tomato (Okabe) Young, Dye & Wilkie), Cucumber Angular Leaf Spot, Rice Sheath Blight Disease (Rhizoctonia solani), Corynespora Leaf Spot of Cucumber (Corynespora cassiicola), Downy Mildew of Cucumber (Cucumber Downy Mildew).
(§2) Testing agents and control agents were sprayed uniformly at A.M. of a sunshine day on the cucumber seminal leaves. After 2 hours, the leaves were inoculated with pathogenic microbes and cultured at humidity. […] Strip inoculation is used for Rice Sheath Blight Disease and phytophthora blight of pepper, in which the liquor was sprayed and after 2 hours, inoculation of strips was performed followed by culturing at humidity. After full occurrence of diseases in the control group, state of illness was examined according to grading standards, and a disease index and inhibition rate were calculated.

[1] = tested on: Corynespora Leaf Spot of Cucumber; experiment: as above; settings: for pest or weed control at 500 µg/g: Corynespora, in Cucumis sativus, read-out: Corynespora Leaf Spot of Cucumber Average inhibition rate (%)
Method: as §1, §2

anthracnose of cucumber = experiment: Spawn growth rate on agar plates (Embodiment 9); type: cell-based, GloeosporiumorbiculareArs; settings: 48 h; testing concentration of 100 μg/g; Table 5
[2] = tested on: Rice Sheath Blight Disease; experiment: Microbicidal activity, spray then strip inoculation (Embodiment 8); settings: for pest or weed control at 500 µg/g: Oryza sativa, read-out: Rice Sheath Blight Disease Average inhibition rate (%)
Method: as §1, §2

[3] = tested on: Cucumber Angular Leaf Spot; experiment: Microbicidal activity on cucumber seedlings, spray then inoculation (Embodiment 8); settings: for pest or weed control at 500 µg/g: Cucumis sativus, read-out: Cucumber Angular Leaf Spot Average inhibition rate (%); for Cucumber Angular Leaf Spot Average inhibition rate (%): testing concentration of 500 μg/g
Method: as §1, §2

tobacco brown spot = experiment: microbe, parasite or virus in culture; type: cell-based, Alternaria alternate (Fries) Keissler; settings: 48 h, testing concentration of 100 μg/g; Table 4; read-out: Tobacco brown spot Average inhibition rate (%)
[4] = tested on: Cucumber Angular Leaf Spot; experiment: Microbicidal activity on cucumber seedlings, spray then inoculation (Embodiment 7); settings: for Cucumber bacterial spot (%), controlling effect: testing concentration of 500 μg/g, cucumber seedling; for pest or weed control at 500 µg/g: Cucumis sativus, read-out: Cucumber bacterial spot (%), controlling effect
Method: Testing Materials: Strain: Cucumber Angular Leaf Spot
Testing method: a cucumber seedling at the stage of 2 seminal leaves was inoculated by spraying a suspension of Cucumber Angular Leaf Spot. Testing agents and control agents were sprayed uniformly on the seminal leaves at A.M. of a sunshine day respectively. After 2 hours, the leaves were inoculated with pathogenic microbes and cultured at humidity. After full occurrence of disease in control group, state of illness was examined according to grading standards, and the controlling effects were measured.

wheat scab = experiment: microbe, parasite or virus in culture; type: cell-based, Gibberella zeae; settings: for inhibition of growth at 100 µg/g: 48 h, read-out: Wheat scab Average inhibition rate (%); for Wheat scab (inhibition): Table 7
[5] = tested on: Rice Sheath Blight Disease (sheath and culm blight of rice); experiment: Spawn growth rate on agar plates (Embodiment 9); type: cell-based, Rhizoctonia solani; settings: 48 h; for inhibition of growth at 12.5 µg/g: Concentration 12.5 μg/g; for inhibition of growth at 25 µg/g: Concentration 25 μg/g; for inhibition of growth at 50 µg/g: Concentration 50 μg/g
early blight of tomato = experiment: Spawn growth rate on agar plates (Embodiment 9); type: cell-based, Alternaria solania; settings: for inhibition of growth at 100 µg/g: 48 h, testing concentration of 100 μg/g, Table 6; for Early blight of tomato (inhibition): Table 7
[6] = testing concentration of 100 μg/g, Table 4, read-out: Gray mold of cucumber Average inhibition rate (%)
[7] = testing concentration of 100 μg/g, Table 6, read-out: Gray mold of cucumber Average inhibition rate (%)
[8] = testing concentration of 100 μg/g, Table 6, read-out: Sheath and culm blight of rice Average inhibition rate (%)
[9] = testing concentration of 500 μg/g

Cc1ncc(Cn2cc(COc3ccc([N+](=O)[O-])cc3Cl)nn2)c(N)n1 [Compound 15]
melting point: 194 to 196 °C
inhibition of growth at 100 µg/g (gray mold of cucumber; [6]): 44%
pest or weed control at 500 µg/g (Downy Mildew of Cucumber): 30%
pest or weed control at 500 µg/g [1]: 80%
inhibition of growth at 100 µg/g (anthracnose of cucumber): 57%
pest or weed control at 500 µg/g [2]: 60%
pest or weed control at 500 µg/g [3]: 60%

Cc1ncc(Cn2cc(COc3ccc(C(=O)O)cc3)nn2)c(N)n1 [Compound 7]
melting point: > 260 °C
inhibition of growth at 100 µg/g (gray mold of cucumber; [6]): 67%
inhibition of growth at 100 µg/g (tobacco brown spot): 57%
pest or weed control at 500 µg/g (Downy Mildew of Cucumber): 40%
pest or weed control at 500 µg/g [1]: 70%
pest or weed control at 500 µg/g [2]: 70%
pest or weed control at 500 µg/g [3]: 55%

S=c1[nH]nc(NCNc2n[nH]c(=S)s2)s1 [Bismerthiazol, reference compound]
Cucumber bacterial spot (%), controlling effect [4]: 73.14%
Cucumber Angular Leaf Spot Average inhibition rate (%) [3]: 73%

Cc1ncc(Cn2cc(COC(=O)c3ccc(F)cc3)nn2)c(N)n1 [Compound 34]
melting point: 198 to 199 °C
inhibition of growth at 100 µg/g (gray mold of cucumber; [6]): 63%
pest or weed control at 500 µg/g [4]: 60%
inhibition of growth at 100 µg/g (wheat scab): 51%
pest or weed control at 500 µg/g [2]: 40%

Nc1nnc([S-])s1.Nc1nnc([S-])s1.[Cu+2] [Thiodiazole-copper, reference compound]
Cucumber bacterial spot (%), controlling effect [4]: 65.89%
Cucumber Angular Leaf Spot Average inhibition rate (%) [3]: 66%

Cc1ncc(Cn2cc(COC(=O)c3ccccc3Cl)nn2)c(N)n1 [Compound 36]
melting point: 85 to 87 °C
inhibition of growth at 100 µg/g (gray mold of cucumber; [6]): 61%
pest or weed control at 500 µg/g [4]: 60%
pest or weed control at 500 µg/g [2]: 45%
pest or weed control at 500 µg/g [3]: 60%

Cc1ncc(Cn2cc(COc3cccc(C)c3C)nn2)c(N)n1 [Compound 14]
melting point: 202 to 204 °C
inhibition of growth at 100 µg/g (gray mold of cucumber; [6]): 54%
inhibition of growth at 100 µg/g (tobacco brown spot): 60%
pest or weed control at 500 µg/g (Downy Mildew of Cucumber): 35%
pest or weed control at 500 µg/g [1]: 90%
pest or weed control at 500 µg/g [2]: 70%
pest or weed control at 500 µg/g [3]: 60%

Cc1ncc(Cn2cc(COC(=O)c3ccccc3F)nn2)c(N)n1 [Compound 37]
melting point: 124 to 125 °C
inhibition of growth at 100 µg/g (gray mold of cucumber; [6]): 98%
pest or weed control at 500 µg/g [4]: 70%
inhibition of growth at 100 µg/g (wheat scab): 51%
pest or weed control at 500 µg/g [2]: 50%
pest or weed control at 500 µg/g [3]: 37%

Cc1ncc(Cn2nnc(COc3ccccc3Cl)c2I)c(N)n1 [Compound 86]
melting point: 168 to 170 °C
inhibition of growth at 12.5 µg/g (gray mold of cucumber; Table 8): 40%
inhibition of growth at 25 µg/g (gray mold of cucumber; Table 8): 76%
inhibition of growth at 50 µg/g (gray mold of cucumber; Table 8): 97%
inhibition of growth at 100 µg/g (gray mold of cucumber; [7]): 100%
inhibition of growth at 12.5 µg/g ([5]; Table 8): 37%
inhibition of growth at 25 µg/g ([5]; Table 8): 74%
inhibition of growth at 50 µg/g ([5]; Table 8): 98%
inhibition of growth at 100 µg/g [5, 8]: 99%
inhibition of growth at 100 µg/g (wheat scab): 62%
inhibition of growth at 100 µg/g (early blight of tomato): 60%

Cc1ncc(Cn2nnc(COc3ccc(Cl)cc3)c2I)c(N)n1 [Compound 28]
melting point: 183 to 185 °C
inhibition of growth at 12.5 µg/g (gray mold of cucumber; Table 8): 85%
inhibition of growth at 25 µg/g (gray mold of cucumber; Table 7): 42%
inhibition of growth at 25 µg/g (gray mold of cucumber; Table 8): 90%
inhibition of growth at 50 µg/g (gray mold of cucumber; Table 7): 86%
inhibition of growth at 50 µg/g (gray mold of cucumber; Table 8): 98%
inhibition of growth at 100 µg/g (gray mold of cucumber; Concentration 100 μg/g, Table 7, read-out: Gray mold of cucumber (inhibition)): 90%
inhibition of growth at 100 µg/g (gray mold of cucumber; [7]): 100%
inhibition of growth at 12.5 µg/g ([5]; Table 8): 87%
inhibition of growth at 25 µg/g ([5]; Table 7): 91%
inhibition of growth at 25 µg/g ([5]; Table 8): 96%
inhibition of growth at 50 µg/g ([5]; Table 7): 98%
inhibition of growth at 50 µg/g ([5]; Table 8): 98%
inhibition of growth at 100 µg/g ([5]; Concentration 100 μg/g, Table 7, read-out: Sheath and culm blight of rice (inhibition)): 99%
inhibition of growth at 100 µg/g [5, 8]: 100%
inhibition of growth at 100 µg/g (wheat scab): 67%
Wheat scab (inhibition) (wheat scab; Concentration 25 μg/g): 43%
Wheat scab (inhibition) (wheat scab; Concentration 50 μg/g): 64%
Wheat scab (inhibition) (wheat scab; Concentration 100 μg/g): 69%
inhibition of growth at 100 µg/g (early blight of tomato): 69%
Early blight of tomato (inhibition) (early blight of tomato; Concentration 25 μg/g): 0%
Early blight of tomato (inhibition) (early blight of tomato; Concentration 50 μg/g): 28%
Early blight of tomato (inhibition) (early blight of tomato; Concentration 100 μg/g): 68%

Cc1ncc(Cn2nnc(COc3ccc(F)cc3)c2I)c(N)n1 [Compound 82]
melting point: 160 to 162 °C
inhibition of growth at 12.5 µg/g (gray mold of cucumber; Table 8): 56%
inhibition of growth at 25 µg/g (gray mold of cucumber; Table 8): 97%
inhibition of growth at 50 µg/g (gray mold of cucumber; Table 8): 99%
inhibition of growth at 100 µg/g (gray mold of cucumber; [7]): 96%
inhibition of growth at 12.5 µg/g ([5]; Table 8): 63%
inhibition of growth at 25 µg/g ([5]; Table 8): 90%
inhibition of growth at 50 µg/g ([5]; Table 8): 100%
inhibition of growth at 100 µg/g [5, 8]: 96%
inhibition of growth at 100 µg/g (wheat scab): 48%
inhibition of growth at 100 µg/g (early blight of tomato): 70%

Cc1ccc(C(=O)OCc2cn(Cc3cnc(C)nc3N)nn2)cc1 [Compound 38]
melting point: 202 to 203 °C
inhibition of growth at 100 µg/g (gray mold of cucumber; [6]): 61%
pest or weed control at 500 µg/g [4]: 60%
inhibition of growth at 100 µg/g (anthracnose of cucumber): 54%
inhibition of growth at 100 µg/g (wheat scab): 56%
pest or weed control at 500 µg/g [2]: 50%
pest or weed control at 500 µg/g [3]: 40%

Cc1ccc(Cl)c(OCc2cn(Cc3cnc(C)nc3N)nn2)c1 [Compound 5]
melting point: 184 to 185 °C
inhibition of growth at 100 µg/g (gray mold of cucumber; [6]): 67%
inhibition of growth at 100 µg/g (tobacco brown spot): 56%
pest or weed control at 500 µg/g (Downy Mildew of Cucumber): 70%
pest or weed control at 500 µg/g [1]: 70%
pest or weed control at 500 µg/g [2]: 80%
pest or weed control at 500 µg/g [3]: 50%

Cc1ncc(Cn2cc(COC(=O)c3ccc(Cl)cc3)nn2)c(N)n1 [Compound 33]
melting point: 188 to 189 °C
inhibition of growth at 100 µg/g (gray mold of cucumber; [6]): 61%
pest or weed control at 500 µg/g [4]: 60%
inhibition of growth at 100 µg/g (wheat scab): 55%
pest or weed control at 500 µg/g [2]: 55%

Cc1ncc(Cn2nnc(COc3ccc(C#N)cc3)c2I)c(N)n1 [Compound 31]
melting point: 199 to 201 °C
inhibition of growth at 12.5 µg/g (gray mold of cucumber; Table 8): 75%
inhibition of growth at 25 µg/g (gray mold of cucumber; Table 8): 87%
inhibition of growth at 50 µg/g (gray mold of cucumber; Table 8): 91%
inhibition of growth at 100 µg/g (gray mold of cucumber; [7]): 95%
inhibition of growth at 12.5 µg/g ([5]; Table 8): 78%
inhibition of growth at 25 µg/g ([5]; Table 8): 88%
inhibition of growth at 50 µg/g ([5]; Table 8): 96%
inhibition of growth at 100 µg/g [5, 8]: 97%
inhibition of growth at 100 µg/g (wheat scab): 58%
inhibition of growth at 100 µg/g (early blight of tomato): 70%

Zhongshengmycin [reference compound]
Cucumber bacterial spot (%), controlling effect [4]: 70.69%
Downy Mildew of Cucumber Average inhibition rate (%) (Downy Mildew of Cucumber; [9]): 40%
Corynespora Leaf Spot of Cucumber Average inhibition rate (%) [1, 9]: 50%
Rice Sheath Blight Disease Average inhibition rate (%) [2, 9]: 50%
Cucumber Angular Leaf Spot Average inhibition rate (%) [3]: 70%

Cc1ncc(Cn2nnc(COc3ccc(F)cc3Cl)c2I)c(N)n1 [Compound 27]
melting point: 187 to 189 °C
inhibition of growth at 12.5 µg/g (gray mold of cucumber; Table 8): 59%
inhibition of growth at 25 µg/g (gray mold of cucumber; Table 8): 66%
inhibition of growth at 50 µg/g (gray mold of cucumber; Table 8): 92%
inhibition of growth at 100 µg/g (gray mold of cucumber; [7]): 99%
inhibition of growth at 12.5 µg/g ([5]; Table 8): 0%
inhibition of growth at 25 µg/g ([5]; Table 8): 37%
inhibition of growth at 50 µg/g ([5]; Table 8): 72%
inhibition of growth at 100 µg/g [5, 8]: 94%
inhibition of growth at 100 µg/g (wheat scab): 39%
inhibition of growth at 100 µg/g (early blight of tomato): 38%
